{"source": "paper PMC8834506", "about": "“Optimization of Thymidine Kinase-Based Safety Switch for Neural Cell Therapy” (Cells, 2022)", "key": {"non-transduced hESC": {"system": "non-transduced hESC", "format": "cell-based", "details": "96 h nucleoside exposure; up to 100 µM", "method": "Cells were exposed to 100 µM of the respective nucleoside for 48 h. DNA damage was monitored using γ-H2A.X marker in yellow and nuclei were counterstained with Hoechst. The white box in the first column indicates the area of the zoom for the hESC colonies.\nPlates were washed twice with DMEM-F12 (Gibco, ThermoFisher; Geneva, Switzerland), then coated with Matrigel (Corning, Lonay, Switzerland) 1/100 in DMEM-F12 and incubate 2 h at 37°. Cells were detached using Accutase and seeded at 2000 cells/well in serum-free culture medium containing 10 µM of ROCK inhibitor. At 24 h, the cell culture was continued without ROCK inhibitor. […] Drugs were prepared by serial dilution (two-fold) in 100% DMSO. At 48 h after seeding, cells were exposed to antiviral drugs for 96 h. For EC50 assays, the medium was changed daily for 4 days, then cell viability was assessed using an ATP-based assay. EC50 values for each construct were calculated using a four parameters equation (GraphPad, Prism8, San Diego, CA, USA). The same procedure was used for the cell death kinetic determinations except the treatment duration. Luminescence was measured using Spectra L384/L96 (0.2 sec exposure, Molecular devices, Biberach an der Riß, Germany)."}, "[1]": {"system": "hESC (HS420) expressing Ki67-SR39", "assay": "ATP-based cell survival assay, GCV-induced cell death", "design": "species or system human", "details": "for EC50: Homo sapiens", "method": "Our first generation of suicide gene was engineered with the wild type thymidine kinase (wt-TK). To improve the suicide gene efficacy, we investigated different TK variants; wt-TK, 30-GMK, SR39, SR39h, and SR39h D116E variants. These sequences were chosen based on the analysis of the literature investigating HSV1-TK variants, as well as a gain of function mutation in the CMV UL-97 kinase. The efficacy of each variants was determined as percentage of cell survival following prodrug treatment compared to non-treated hESC. For this purpose, we used the ATP-based assay, which measures cellular ATP content and thereby provides a reliable estimate of the number of healthy cells. The 50% effective concentration (EC50) was defined as the drug concentration required to reduce the percentage of cell survival by 50%. […] In order to optimize our system, we first replaced the wt-TK by the 30-GMK variant, which is a fusion between the 30 TK variant and guanylate kinase (GMK). Note that GMK is mediating the second phosphorylation step of antiviral nucleoside analogs. […] Microbial codon usage might not yield optimal results in human cells. We therefore adapted the SR39 sequence to a typical human codon usage. For this purpose, 218 of the total 376 codons of the SR39 sequence were changed (for details see Supplementary Sequence 1 and Method section). We will refer to this sequence as the SR39h variant.\nFigure 1 EC50 of ganciclovir (GCV) in cell expressing different thymidine kinase (TK) variants. […] Number of surviving cells was monitored using bioluminescent ATP-based assay. […]\nCell culture plate (96 wells plate Corning #3907, Corning, Lonay, Switzerland) were pre-coated with 60 μL per well of Poly-L-ornithine solution (Sigma, Merk, Eysins, Switzerland) at 37 °C for 30 min. […] For EC50 assays, the medium was changed daily for 4 days, then cell viability was assessed using an ATP-based assay. EC50 values for each construct were calculated using a four parameters equation (GraphPad, Prism8, San Diego, CA, USA). […]"}, "[2]": {"system": "hESC (HS420) expressing Ki67-SR39h", "assay": "ATP-based cell survival assay, nucleoside-induced cell death", "details": "for EC50: Homo sapiens, 96 h"}}, "note": "Like-named read-outs stand apart in the source and are kept apart here."}
{"smiles": "Nc1nc(O)c2ncn(COC(CO)CO)c2n1", "note": "[GCV, ganciclovir]", "values": [{"measurement": "Toxicity in non-transduced hESC", "setting": "non-transduced hESC", "value": "low micromolar range"}, {"measurement": "Fold increase compare to wt-TK (fold reduction in EC50)", "setting": "[1]; GCV EC50 ratio, Ki67-SR39 vs wt-TK", "value": 50, "unit": "fold"}, {"measurement": "EC50", "setting": "[1]; 96 h, read-out: EC50 of GCV (cell survival)", "value": 2, "unit": "nM"}, {"measurement": "EC50", "setting": "[1]; 96 h GCV exposure, Ki67-SR39, read-out: GCV EC50", "value": 1.9, "unit": "nM"}, {"measurement": "Cell death induction in SR39h-expressing cells (in words)", "setting": "[2]; 96 h nucleoside exposure", "value": "strong suicide inducers"}, {"measurement": "Fold more performant than SR39", "setting": "[2]; GCV EC50, SR39h vs SR39", "value": 10, "unit": "fold"}, {"measurement": "EC50", "setting": "[2]; read-out: EC50 (cell survival), 96 h nucleoside exposure, SR39h under Ki67 promoter", "value": 0.2, "unit": "nM"}, {"measurement": "EC50", "setting": "[2]; read-out: GCV EC50 in M, 96 h GCV exposure, Ki67-SR39h", "value": 0.19, "unit": "nM"}]}
